For series [1] the following is noted: via conversion to 4-androstenediol; stated as well known; cited from earlier work.
For series [2] the following is noted: regular (non-esterified) 19 Nor-DHEA; cited from earlier work.
For series [3] the following is noted: cited from earlier work.
Series [4] in a line: Bioavailability / half-life of 19 Nor-DHEA forms. Type of series: in vivo. The following applies: compared with regular 19 Nor-DHEA.

The structures appear in SMILES notation.

Take `C[C@]12CC[C@H](O)C=C1CC[C@@H]1[C@@H]2CC[C@]2(C)C(=O)CC[C@@H]12` [4-DHEA]: in series [1], the “anabolic potency compared with regular DHEA” value is given as “more than two times greater”. Consider `C[C@]12CC[C@H]3[C@@H](CC=C4C[C@@H](O)CC[C@@H]43)[C@@H]1CCC2=O` [19 Nor-DHEA], for which, in series [2], the half-life entry is on record as “very short half-life”. On to `C[C@]12CC[C@H](O)CC1=CC[C@@H]1[C@@H]2CC[C@]2(C)C(=O)CC[C@@H]12` [DHEA, dehydroepiandrosterone], for which the “conversion rate to testosterone” value in series [3] (stated as well known) is reported as around 1%. As for `CCCCCCC(=O)O[C@@H]1C=C2CC[C@@H]3[C@H](CC[C@]4(C)C(=O)CC[C@@H]34)[C@H]2CC1` [enanthated 19 Nor-DHEA, 3b-enanthoxy-19-nor-androst-4-ene-17-one], the bioavailability result in series [4] was “improved bioavailability”. Consider `C[C@]12C=CC(O)CC1CC[C@@H]1[C@@H]2CC[C@]2(C)C(=O)CC[C@@H]12` (some centres unmarked) [1-DHEA], for which the “conversion rate to 1-testosterone” value in series [3] (stated as generally known) is given as “less than 2%”.

Values taken from US20170304317A1, “DIETARY S[…] MUSCLE GROWTH AND STRENGTH” (priority 2015, published 2017).
